Measured values as given in ChEMBL document CHEMBL4257081, “Inhibitors of the kynurenine pathway” (2016).
The source made the active and inactive calls. The calls are words filed in the database; no cut-off is given here.

Experiments:
[1] = tested on: Mus musculus; assay: Reduction in plasma kynurenine levels in Balb/C mouse implanted with mouse CT26 cells at 50 mg/kg, po bid for 4 days measured 2 hrs post last dose by LC/MS/MS analysis relative to control; format: functional; design: scale not given: the % may be the effect or the level left
[2] = tested on: Mus musculus; assay: In vivo inhibition of IDO1 in po dosed LPS-induced C57BL/6 mouse assessed as reduction in plasma kynurenine levels measured after 2 to 48 hrs by LC/MS/MS analysis; format: functional
[3] = tested on: Mus musculus; assay: Reduction in kynurenine levels in tumor of Balb/C mouse implanted with mouse CT26 cells at 50 mg/kg, po bid for 4 days measured 2 hrs post last dose by LC/MS/MS analysis relative to control; format: functional; design: scale not given: the % may be the effect or the level left
[4] = biological target: Tryptophan 2,3-dioxygenase (Homo sapiens, UniProt P48775); assay: Inhibition of recombinant human TDO2 expressed in CHOK1 cells assessed as reduction in kynurenine formation using L-tryptophan as substrate measured after 2 hrs by LC/MS/MS analysis; format: cell-based
[5] = biological target: T1, Indoleamine 2,3-dioxygenase 1 (Homo sapiens, UniProt P14902); assay: Inhibition of IDO1 in IFNgamma-stimulated human HeLa cells assessed as reduction in kynurenine formation using L-tryptophan as substrate measured after 15 mins by UV-vis HPLC analysis
[6] = Ratio of drug level in brain to plasma in Sprague-Dawley rat at 10 mg/kg, iv administered as single dose measured after 3 hrs by LC/MS/MS analysis; format: ADME, organism-based; conditions: brain and plasma, read-out: BPR
[7] = Ratio of drug level in brain to plasma in Sprague-Dawley rat at 10 mg/kg, iv administered as single dose measured after 0.5 hrs by LC/MS/MS analysis; format: ADME, organism-based; conditions: brain and plasma, read-out: BPR
[8] = Ratio of drug level in brain to plasma in Sprague-Dawley rat at 10 mg/kg, iv administered as single dose measured after 1 hr by LC/MS/MS analysis; format: ADME, organism-based; conditions: brain and plasma, read-out: BPR
[9] = tested on: CT26; assay: (§1) Synergistic antitumor activity against mouse CT26 cells implanted in Balb/c mouse assessed as reduction in tumor volume at 75 mg/kg, po bid for 35 days starting from day 5 post doxorubucin administration followed by second doxorubicin dosing at 3 weeks post doxorubicin dose measured 4 hrs post last dose; format: functional, organism-based
[10] = tested on: Mus musculus; assay: Reduction in plasma kynurenine levels in Balb/C mouse implanted with mouse CT26 cells at 75 mg/kg, po bid measured after 14 days by LC/MS/MS analysis relative to control; format: functional; design: scale not given: the % may be the effect or the level left
[11] = tested on: CT26; assay: Antitumor activity against mouse CT26 cells implanted in Balb/C mouse assessed as reduction in tumor growth at 75 mg/kg, po bid measured on day 1,4,6,9,11 and 14 relative to control; format: functional; design: scale not given: the % may be the effect or the level left
[12] = tested on: CT26; assay: Synergistic antitumor activity against mouse CT26 cells implanted in Balb/c mouse assessed as reduction in time of tumor progression at 75 mg/kg, po bid for 35 days starting from day 5 post doxorubucin administration followed by second doxorubicin dosing at 3 weeks post doxorubicin dose; format: functional, organism-based
[13] = biological target: T1, Indoleamine 2,3-dioxygenase 1; assay: Inhibition of recombinant human N-terminal His-tagged IDO1 (1 to 403 residues) expressed in Escherichia coli assessed as reduction in kynurenine formation using tryptophan as substrate measured by LC/MS/MS analysis
[14] = tested on: CT26; assay: Antitumor activity against mouse CT26 cells implanted in Balb/C mouse assessed as reduction in tumor growth at 60 mg/kg, po bid measured on day 1,4,6,9,11 and 14 relative to control; format: functional; design: scale not given: the % may be the effect or the level left
[15] = tested on: Mus musculus; assay: Reduction in plasma kynurenine levels in Balb/C mouse implanted with mouse CT26 cells at 60 mg/kg, po bid measured after 14 days by LC/MS/MS analysis relative to control; format: functional; design: scale not given: the % may be the effect or the level left
[16] = tested on: CT26; assay: Synergistic antitumor activity against mouse CT26 cells implanted in Balb/c mouse assessed as reduction in time of tumor progression at 50 mg/kg, po bid for 35 days starting from day 5 post doxorubucin administration followed by second doxorubicin dosing at 3 weeks post doxorubucin dose; format: functional, organism-based
[17] = tested on: Mus musculus; assay: Reduction in plasma kynurenine levels in Balb/C mouse implanted with mouse CT26 cells at 50 mg/kg, po bid measured after 14 days by LC/MS/MS analysis relative to control; format: functional; design: scale not given: the % may be the effect or the level left
[18] = tested on: CT26; assay: as §1, with “at 50” for “at 75”, “post doxorubucin” for “post doxorubicin”; format: functional, organism-based
[19] = tested on: CT26; assay: Antitumor activity against mouse CT26 cells implanted in Balb/C mouse assessed as reduction in tumor growth at 50 mg/kg, po bid measured on day 1,4,6,9,11 and 14 relative to control; format: functional; design: scale not given: the % may be the effect or the level left
[20] = tested on: Mus musculus; assay: Reduction in kynurenine levels in tumor of Balb/C mouse implanted with mouse CT26 cells at 20 mg/kg, po bid for 4 days measured 2 hrs post last dose by LC/MS/MS analysis relative to control; format: functional; design: scale not given: the % may be the effect or the level left
[21] = tested on: Mus musculus; assay: Reduction in plasma kynurenine levels in Balb/C mouse implanted with mouse CT26 cells at 20 mg/kg, po bid for 4 days measured 2 hrs post last dose by LC/MS/MS analysis relative to control; format: functional; design: scale not given: the % may be the effect or the level left
[22] = tested on: CT26; assay: Antitumor activity against mouse CT26 cells implanted in Balb/C mouse assessed as reduction in tumor growth at 40 mg/kg, po bid measured on day 1,4,6,9,11 and 14; format: functional, organism-based
[23] = tested on: Mus musculus; assay: Reduction in plasma kynurenine levels in Balb/C mouse implanted with mouse CT26 cells at 40 mg/kg, po bid measured after 14 days by LC/MS/MS analysis relative to control; format: functional; design: scale not given: the % may be the effect or the level left

T1 sequence (P14902 whole entry): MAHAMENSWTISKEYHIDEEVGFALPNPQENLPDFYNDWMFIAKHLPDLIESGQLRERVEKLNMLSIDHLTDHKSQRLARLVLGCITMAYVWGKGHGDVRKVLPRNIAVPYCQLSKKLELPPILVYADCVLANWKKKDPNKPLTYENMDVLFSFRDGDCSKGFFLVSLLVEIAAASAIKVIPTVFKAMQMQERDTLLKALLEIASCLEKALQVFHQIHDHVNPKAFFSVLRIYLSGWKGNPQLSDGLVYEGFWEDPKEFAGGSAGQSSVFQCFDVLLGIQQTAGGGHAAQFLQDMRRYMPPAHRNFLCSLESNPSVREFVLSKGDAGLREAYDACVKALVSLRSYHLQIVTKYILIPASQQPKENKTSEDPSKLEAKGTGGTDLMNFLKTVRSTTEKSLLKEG
Tryptophan 2,3-dioxygenase, sequence (P48775 whole entry): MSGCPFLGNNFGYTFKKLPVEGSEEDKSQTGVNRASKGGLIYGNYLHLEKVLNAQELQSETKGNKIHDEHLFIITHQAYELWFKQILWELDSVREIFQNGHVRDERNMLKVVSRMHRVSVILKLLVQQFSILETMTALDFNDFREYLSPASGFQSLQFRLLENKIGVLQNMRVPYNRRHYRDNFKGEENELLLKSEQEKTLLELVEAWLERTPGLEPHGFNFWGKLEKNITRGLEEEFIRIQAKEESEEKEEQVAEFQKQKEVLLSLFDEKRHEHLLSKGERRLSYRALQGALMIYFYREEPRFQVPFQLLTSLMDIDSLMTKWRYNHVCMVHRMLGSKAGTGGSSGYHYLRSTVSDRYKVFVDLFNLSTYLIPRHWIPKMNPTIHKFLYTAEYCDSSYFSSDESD

Row | SMILES | Activity [1] | inhibition (INH) [2] | Activity [3] | further results
1 | N#Cc1nccc2c(Nc3ccc(F)c(C(F)(F)F)c3)c(N)oc12 | >=25 - 50% | >50% | <25% | –
2 | Nc1oc2c(-c3ccncc3)nc(F)cc2c1Nc1ccc(F)c(F)c1 | >=25 - 50% | >50% | >50% | –
3 | Nc1sc2cnccc2c1Nc1ccc(F)c(Cl)c1 | – | <25% | – | –
4 | CCOC(=O)Nc1oc2c(C#N)nccc2c1N(C(=O)OCC)c1ccc(F)c(Cl)c1 | >=25 - 50% | – | <25% | –
5 | Nc1oc2cnccc2c1Nc1ccc(F)c(Br)c1 | – | >50% | – | –
6 | Nc1oc2c(-c3ccncc3)nccc2c1Nc1ccc(F)c(C(F)(F)F)c1 | – | >50% | – | –
7 | Nc1oc2c(-c3ccccc3Cl)nccc2c1Nc1ccc(F)c(Cl)c1 | – | >=25 - 50% | – | IC50 [4]: < 500 nM; IC50 [5]: < 200 nM
8 | Nc1oc2c(-c3ccncc3)nccc2c1Nc1ccc(F)c(Cl)c1 | – | >50% | – | Kp at 3 h [6]: 0.64; Kp at 0.5 h [7]: 0.67; Kp at 1 h [8]: 0.47; Activity [9]: Active; Activity [10]: 40 - 50%; Activity [11]: 26 - 38%; Activity [12]: Active
9 | Nc1sc2ccccc2c1Nc1ccc(F)c(Cl)c1 | – | >=25 - 50% | – | –
10 | Nc1oc2c(-c3ccccc3)nc(Oc3ccccc3)cc2c1Nc1ccc(F)c(Cl)c1 | – | – | – | IC50 [4]: > 2000 nM; IC50 [13]: > 1000 nM
11 | Nc1sc2ccccc2c1Nc1cccc(Cl)c1 | – | >=25 - 50% | – | –
12 | Nc1sc2c(-c3ccncc3)cccc2c1Nc1ccc(F)c(Cl)c1 | – | >=25 - 50% | – | –
13 | Nc1oc2c(-c3ccc(F)cc3)nccc2c1Nc1ccc(F)c(Cl)c1 | – | >50% | – | –
14 | Nc1oc2c(-c3ccncc3)nc(F)cc2c1Nc1ccc(F)c(Cl)c1 | <25% | >50% | >=25 - 50% | –
15 | Nc1oc2c(F)nc(F)cc2c1Nc1ccc(F)c(Cl)c1 | >=25 - 50% | >=25 - 50% | >50% | –
16 | O=C(Nc1oc2cnccc2c1N(C(=O)OCc1ccccc1)c1ccc(F)c(Cl)c1)OCc1ccccc1 | – | >50% | – | –
17 | Cc1cc(-c2nccc3c(Nc4ccc(F)c(Cl)c4)c(N)oc23)cc(C)n1 | >=25 - 50% | >50% | >=25 - 50% | –
18 | Nc1oc2c(-c3ccc(F)c(F)c3)nccc2c1Nc1ccc(F)c(Cl)c1 | – | >=25 - 50% | – | –
19 | Nc1oc2c(-c3ccnc(N4CCOCC4)c3)nccc2c1Nc1ccc(F)c(Cl)c1 | >50% | >50% | >=25 - 50% | –
20 | N#Cc1nccc2c(Nc3ccc(F)c(Cl)c3)c(N)oc12 | >=25 - 50% | >50% | <25% | –
21 | Cc1cc(-c2nccc3c(Nc4ccc(F)c(F)c4)c(N)oc23)ccn1 | >50% | >50% | >50% | –
22 | Cc1cc(-c2nccc3c(Nc4ccc(F)c(Cl)c4)c(N)oc23)ccn1 | >50% | >50% | >50% | –

Row | SMILES | Activity [1] | inhibition (INH) [2] | Activity [3] | further results
23 | COc1ccccc1-c1nccc2c(Nc3ccc(F)c(Cl)c3)c(N)oc12 | <25% | – | <25% | –
24 | Nc1oc2c(Cl)nccc2c1Nc1ccc(F)c(Cl)c1 | >=25 - 50% | >50% | >=25 - 50% | Activity [14]: 26 - 38%; Activity [15]: 40 - 50%
25 | Nc1oc2c(-c3ccncc3)nccc2c1Nc1ccc(F)c(F)c1 | >50% | >50% | >50% | Activity [16]: Active; Activity [17]: 40 - 50%; Activity [18]: Active; Activity [19]: 26 - 38%
26 | CCOC(=O)Nc1oc2cnccc2c1N(C(=O)OCC)c1ccc(F)c(Cl)c1 | >50% | >50% | >50% | –
27 | C#Cc1cccc(Nc2c(N)oc3c(-c4ccccc4)nccc23)c1 | – | >50% | – | –
28 | Nc1oc2c(-c3cccc4ccccc34)nccc2c1Nc1ccc(F)c(Cl)c1 | >50% | >=25 - 50% | >50% | –
29 | Nc1oc2cnccc2c1Nc1cccc(C(F)(F)F)c1 | – | >50% | – | Activity [20]: >=25 - 50%; Activity [21]: >50%
30 | C#Cc1cccc(Nc2c(N)oc3c(CC)nccc23)c1 | – | >50% | – | –
31 | Nc1oc2cnccc2c1Nc1ccc(F)c(Cl)c1 | – | >50% | – | Kp at 3 h [6]: 6; Kp at 0.5 h [7]: 9.8; Kp at 1 h [8]: 10.7; Activity [22]: Active; Activity [23]: 40 - 50%
32 | CCOC(=O)Nc1oc2cnccc2c1Nc1ccc(F)c(Cl)c1 | – | – | – | IC50 [4]: > 2000 nM; IC50 [13]: > 1000 nM
33 | Nc1sc2ccccc2c1Nc1ccccc1 | – | – | – | IC50 [4]: < 500 nM; IC50 [13]: 200 to 1000 nM
34 | COCCNC(=O)c1ccc(-c2nccc3c(Nc4ccc(F)c(Cl)c4)c(N)oc23)cc1 | – | >50% | – | –
35 | CNC(=O)c1cc(-c2nccc3c(Nc4ccc(F)c(Cl)c4)c(N)oc23)ccn1 | >50% | – | >50% | –
36 | N#Cc1ccc(-c2nccc3c(Nc4ccc(F)c(Cl)c4)c(N)oc23)cc1 | – | >50% | – | –
37 | Cc1cc(-c2nccc3c(Nc4cccc(C(F)(F)F)c4)c(N)oc23)ccn1 | – | >50% | – | –
38 | Nc1oc2cnc(F)cc2c1Nc1ccc(F)c(C(F)(F)F)c1 | – | – | – | IC50 [4]: < 500 nM; IC50 [5]: < 200 nM
39 | Nc1oc2cnccc2c1Nc1ccc(F)c(F)c1 | – | >50% | – | IC50 [4]: 500 to 2000 nM; IC50 [13]: 200 to 1000 nM
40 | Nc1oc2cnc(F)cc2c1Nc1ccc(F)c(Cl)c1 | >=25 - 50% | >50% | <25% | –
41 | Cc1cc(-c2nccc3c(Nc4ccc(F)cc4)c(N)oc23)ccn1 | – | >50% | – | –
42 | Nc1oc2cnc(Cl)cc2c1Nc1ccc(F)c(Cl)c1 | – | >50% | – | –
43 | Nc1oc2c(-c3ccc(F)c(F)c3F)nccc2c1Nc1ccc(F)c(Cl)c1 | – | >50% | – | –
44 | COc1ccc(-c2nccc3c(Nc4ccc(F)c(Cl)c4)c(N)oc23)cc1 | – | >50% | – | –
